Results reported in patent US10758549B2, “Compositions of obeticholic acid and methods of use” (Intercept Pharmaceuticals, Inc., priority 2015, dated 2020).
Read-outs that look alike come from different tables or passages of the source.

What was measured:
[1] = Example 10: clinical pharmacology / pharmacokinetics of OCA; type: in vivo, human; conditions: for Urinary excretion / dose excreted in feces: radiolabeled ([^14C]) obeticholic acid
Description: This example describes clinical pharmacology and dosing of obeticholic acid (OCA—including obeticholic acid compositions described herein). […] OCA can be supplied as an oral tablet containing obeticholic acid in a formulation as described herein.
Median Tmax for glyco-OCA and tauro-OCA is 10 hours.
Following an oral administration of 25 mg [^14C]-OCA, about 87% of the dose is excreted in feces through biliary secretion. Less than 3% of the dose is excreted in the urine with no detection of OCA.

[2] = test system: subjects with primary biliary cirrhosis; experiment: Example 8: OCA in combination with UDCA in subjects with primary biliary cirrhosis; type: in vivo, human
Description: This example describes a study conducted using an international, multi-center, randomized, double-blind, placebo-controlled, multi-dose, parallel group to determine efficacy and safety of obeticholic acid (OCA) in combination with ursodeoxycholic acid (UDCA) in subjects with primary biliary cirrhosis.
Key Exclusion criteria • Use of colchicine, methotrexate, azathioprine, or systemic corticosteroids • Screening conjugated (direct) bilirubin>2×ULN; ALT or AST>5×ULN; serum creatinine>1.5 mg/dL (133 μmol/L) • History or presence of hepatic decompensation (e.g., variceal bleeds, encephalopathy, or poorly controlled ascites) • History or presence of other concomitant liver diseases or human immunodeficiency virus (HIV) or other viral hepatitis infection • Clinically significant medical condition, and gastrointestinal conditions affecting drug ADME
The percent change (%) in serum ALP from Baseline to End of Study (EOS) was tested where [EOS=Day 85 or last observed ALP value on treatment]
Also observed were the absolute and percent changes in serum ALP levels from Baseline to Day 15, Day 29, Day 57, Day 85/ET and Follow-Up (Day 99). Patients were examined for the absolute and percent change in serum gamma-glutamyl transferase (GGT), alanine aminotransferase (ALT), and aspartate aminotransferase (AST) values from Baseline to Day 15, Day 29, Day 57, Day 85/ET and Follow-Up (Day 99). Patients were examined for absolute and percent changes in serum albumin and conjugated (direct) bilirubin values from Baseline to Day 15, Day 29, Day 57, Day 85/ET and Follow-Up (Day 99). Patients' Enhanced liver fibrosis (ELF) score and change in levels of its components, hyaluronic acid, aminoterminal peptide of pro-collagen III, and tissue inhibitor of matrix metalloproteinase-1 from Baseline to Day 85/ET were performed. The absolute and percent changes in levels of C-reactive protein, non-esterified fatty acid, tumor necrosis factor alpha, tumor necrosis factor beta, tumor growth factor beta, bile acids, glutathione, immunoglobulin M, and osteopontin from Baseline to Day 85/ET were taken.
Overall, 165 subjects (100%) received at least 1 dose of investigational product (ITT and Safety Populations) and 136 subjects comprised the Completer Population. One hundred sixty-one subjects (98%) were included for the analysis of the mITT Population as measured by the percent change in ALP from Baseline to EOS; the mITT Population for sensitivity analysis of the primary endpoint included 163 subjects. It should be noted that the mITT population was defined for the primary analysis as all patients randomized who received at least one dose of study medication and had at least one post-baseline ALP evaluation which was taken at most seven days after their last dose of study medication. (See FIG. 10). The mITT Population for the sensitivity analysis included ALP assessments obtained up to 15 days after the last investigational product use (unlike 7 days for primary endpoint). The number of subjects was balanced across all groups in all analysis populations with the exception of the Completer Population due to the higher proportion of discontinuations with OCA 50 mg.

[3] = test system: patients with NASH; experiment: Example 12: double-blind study of daily 25 mg OCA in NASH, high risk subgroup; type: in vivo, human; conditions: week 72, 25 mg OCA daily
Description: This example describes a clinical, double-blind study examining the effect of daily 25 mg OCA on nonalcoholic steatohepatitis (NASH). OCA lead to biopsy proven improvements in liver fibrosis. Patients with NASH who have elevated NAFLD activity scores (NAS) and fibrosis are at a higher risk of progression to cirrhosis and liver related mortality.
The high risk subgroup was defined as patients with a baseline NAS≥4, baseline fibrosis stage 2 or 3 or baseline fibrosis stage 1 with a comorbidity (type 2 diabetes, BMI≥30 kg/m^2 or ALT≥60 U/L) (OCA n=114; Placebo n=112). The Fibrosis-4 (FIB-4), the aspartate transaminase to platelet ratio (APRI), and the NAFLD fibrosis score (NFS) were all examined between baseline through 72 weeks of treatment and for an additional 24 weeks of follow up.

[4] = Plasma protein binding; type: in vitro ADME; conditions: human
[5] = Surface area by BET; type: physicochemical
Description: The impact of jet-milling on API particle size and surface area is detailed in Table 4-1 and Table 4-2, respectively. Surface area was tested per a BET (Brunauer, Emmett, and Teller theory). The BET method for analyzing surface area is based on adsorption of gas on a surface. The amount of gas adsorbed at a given pressure allows a determination of the surface area.

[6] = oral, listed as obeticholic acid
[7] = OCA 10 mg + UDCA, Completer (n = 32)
[8] = OCA 25 mg + UDCA, Completer (n = 42)
[9] = OCA 50 mg + UDCA, Completer (n = 25)

increase in obeticholic acid exposure ([1]; 20 mg omeprazole once daily with obeticholic acid 10 mg once daily): less than 1.2 fold
systemic exposure versus dose ([1]; 5, 10, and 25 mg once daily for 14 days): increase dose proportionally
Vd ([1]; human, in vivo, read-out: volume of distribution): 613 L
Tmax ([1]; human, plasma, multiple oral doses of OCA 10 mg once daily, read-out: median time (Tmax) of peak plasma concentrations): ~1.5 h
half-life ([1]; human, plasma, oral, read-out: effective half-life (converted)): ~24 h
Tmax ([1]; human, plasma, oral, read-out: median time (tmax) of peak plasma concentrations): ~2 h
Urinary excretion ([1]; oral): Less than 3%
dose excreted in feces ([1]; oral): about 87%
Urinary excretion [1, 6]: less than 3%
dose excreted in feces [1, 6]: greater than 85%
fraction unbound [4]: < 0.01
surface area increase after jet-milling [5]: approximately 3 fold
SMILES: CC[C@H]1[C@@H](O)[C@@H]2[C@H](CC[C@]3(C)[C@@H]([C@H](C)CCC(=O)O)CC[C@@H]23)[C@@]2(C)CC[C@@H](O)C[C@@H]12 [OCA, 3α,7α-dihydroxy-6α-ethyl-5β-cholan-24-oic acid]
effect of food on PK ([1]; 10 mg OCA): does not have a clinically relevant effect
ALP Mean Change, Baseline to Day 85/ET [2, 7]: −86.3 U/L
ALP Mean Percent Change, Baseline to Day 85/ET [2, 7]: −26.7%
ALP Median Change, Baseline to Day 85/ET [2, 7]: −61.3 U/L
ALP Median Percent Change, Baseline to Day 85/ET [2, 7]: −23.5%
ALP at Day 85/ET, Mean [2, 7]: 212.3 U/L
ALP at Day 85/ET, Median [2, 7]: 175.0 U/L
ALP Mean Change, Baseline to Day 85/ET ([2]; OCA 10 mg + UDCA, ITT (n = 38)): −75.4 U/L
ALP Mean Percent Change, Baseline to Day 85/ET ([2]; OCA 10 mg + UDCA, ITT (n = 38)): −23.3%
ALP Median Change, Baseline to Day 85/ET ([2]; OCA 10 mg + UDCA, ITT (n = 38)): −47.5 U/L
ALP Median Percent Change, Baseline to Day 85/ET ([2]; OCA 10 mg + UDCA, ITT (n = 38)): −21.0%
ALP at Day 85/ET, Mean ([2]; OCA 10 mg + UDCA, ITT (n = 38)): 219.0 U/L
ALP at Day 85/ET, Median ([2]; OCA 10 mg + UDCA, ITT (n = 38)): 177.5 U/L
ALP Mean Change, Baseline to Day 85/ET [2, 8]: −76.0 U/L
ALP Mean Percent Change, Baseline to Day 85/ET [2, 8]: −26.6%
ALP Median Change, Baseline to Day 85/ET [2, 8]: −71.3 U/L
ALP Median Percent Change, Baseline to Day 85/ET [2, 8]: −28.2%
ALP at Day 85/ET, Mean [2, 8]: 199.0 U/L
ALP at Day 85/ET, Median [2, 8]: 187.5 U/L
ALP Mean Change, Baseline to Day 85/ET ([2]; OCA 25 mg + UDCA, ITT (n = 48)): −65.0 U/L
ALP Mean Percent Change, Baseline to Day 85/ET ([2]; OCA 25 mg + UDCA, ITT (n = 48)): −24.0%
ALP Median Change, Baseline to Day 85/ET ([2]; OCA 25 mg + UDCA, ITT (n = 48)): −69.3 U/L
ALP Median Percent Change, Baseline to Day 85/ET ([2]; OCA 25 mg + UDCA, ITT (n = 48)): −27.8%
ALP at Day 85/ET, Mean ([2]; OCA 25 mg + UDCA, ITT (n = 48)): 225.0 U/L
ALP at Day 85/ET, Median ([2]; OCA 25 mg + UDCA, ITT (n = 48)): 187.5 U/L
ALP Mean Change, Baseline to Day 85/ET [2, 9]: −101.8 U/L
ALP Mean Percent Change, Baseline to Day 85/ET [2, 9]: −32.5%
ALP Median Change, Baseline to Day 85/ET [2, 9]: −76.0 U/L
ALP Median Percent Change, Baseline to Day 85/ET [2, 9]: −33.9%
ALP at Day 85/ET, Mean [2, 9]: 179.1 U/L
ALP at Day 85/ET, Median [2, 9]: 158.5 U/L
ALP Mean Change, Baseline to Day 85/ET ([2]; OCA 50 mg + UDCA, ITT (n = 41)): −62.9 U/L
ALP Mean Percent Change, Baseline to Day 85/ET ([2]; OCA 50 mg + UDCA, ITT (n = 41)): −20.0%
ALP Median Change, Baseline to Day 85/ET ([2]; OCA 50 mg + UDCA, ITT (n = 41)): −56.5 U/L
ALP Median Percent Change, Baseline to Day 85/ET ([2]; OCA 50 mg + UDCA, ITT (n = 41)): −22.7%
ALP at Day 85/ET, Mean ([2]; OCA 50 mg + UDCA, ITT (n = 41)): 227.9 U/L
ALP at Day 85/ET, Median ([2]; OCA 50 mg + UDCA, ITT (n = 41)): 197.0 U/L
APRI OCA-Placebo LS Mean change ([3]; 95% CI=[−0.32, −0.15]): −0.23
NFS OCA-Placebo LS Mean change ([3]; 95% CI=[−0.45, −0.10]): −0.28
FIB-4 OCA-Placebo LS Mean change ([3]; 95% CI=[−0.47, −0.19]): −0.33
